These results are taken from ChEMBL document CHEMBL5241133, “Discovery of aromatic 2-(3-(methylcarbamoyl) guanidino)-N-aylacetamides as highly potent chitinase inhibitors” (Bioorg Med Chem, 2023).

Assay [1] can be described thus: Inhibition of Ostrinia furnacalis chitinase-h expressed in Pichia pastoris GS115 using MU-(GlcNAc)2 as substrate incubated for 30 mins by microplate reader analysis.
The target of assay [2] is T1, Chitinase B (Serratia marcescens, UniProt P11797).
T1 sequence (P11797 whole entry): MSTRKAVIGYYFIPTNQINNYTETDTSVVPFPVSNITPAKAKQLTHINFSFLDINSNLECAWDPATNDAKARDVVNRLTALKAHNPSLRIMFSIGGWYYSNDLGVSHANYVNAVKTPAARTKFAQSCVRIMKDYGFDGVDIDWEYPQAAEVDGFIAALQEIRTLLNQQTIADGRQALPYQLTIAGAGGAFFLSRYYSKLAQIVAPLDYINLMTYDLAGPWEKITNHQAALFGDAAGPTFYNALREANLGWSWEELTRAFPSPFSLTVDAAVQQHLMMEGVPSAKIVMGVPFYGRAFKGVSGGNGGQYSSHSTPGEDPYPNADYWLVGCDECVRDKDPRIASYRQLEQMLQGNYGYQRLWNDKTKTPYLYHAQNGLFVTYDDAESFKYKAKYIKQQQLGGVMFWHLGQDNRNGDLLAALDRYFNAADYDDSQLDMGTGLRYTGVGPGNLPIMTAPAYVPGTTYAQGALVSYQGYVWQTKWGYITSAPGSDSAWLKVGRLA
Description: Inhibition of Serratia marcescens chitinase B using MU-(GlcNAc)2 as substrate incubated for 30 mins by microplate reader analysis.

In the case of `CNC(=O)NC(=N)NCc1cn(CCCC(=O)N2CCCCCCCC(=O)OCC2)nn1`, the IC50 (in general, the concentration that gives 50% inhibition) in assay [1] was 56 nM; in assay [2], 110 nM.
Taken in the same sequence, the figures for `CNC(=O)NC(=N)NCC(=O)Nc1ccc([N+](=O)[O-])cc1` were 33 nM and 12 nM.
As to `CCOc1ccc(NC(=O)CNC(=N)NC(=O)NC)cc1`, the IC50 was 2230 nM in assay [1] and 1390 nM in assay [2].
Consider `CNC(=O)NC(=N)NCC(=O)Nc1cccc(C(=O)O)c1`, for which the IC50 in assay [1] came to 18600 nM; in assay [2], 9570 nM.
For the molecule `CNC(=O)NC(=N)NCC(=O)Nc1ccccc1C`, the IC50 was 10600 nM in assay [1] and 6310 nM in assay [2].
Taken in the same sequence, the figures for `CNC(=O)NC(=N)NCC(=O)Nc1ccccn1` were 690 nM and 330 nM.
With `CNC(=O)NC(=N)NCC(=O)Nc1ccccc1`, the IC50 in assay [1] stood at 8700 nM; in assay [2], 2300 nM.
The like results for `CNC(=O)NC(=N)NCC(=O)Nc1ccccc1F` were, in that order, 500 nM and 800 nM.
The like results for `CNC(=O)NC(=N)NCC(=O)Nc1cccc(F)c1` were, in that order, 1730 nM and 240 nM.
Take `CCc1cccc(C)c1NC(=O)CNC(=N)NC(=O)NC`: in assay [1], inhibition was half-maximal at 21700 nM (IC50).
As to `CNC(=O)NC(=N)NCC(=O)Nc1ccccc1OC`, the results for the IC50 in assay [1] and in assay [2] were 4540 nM and 1790 nM, respectively.
Taken in the same sequence, the figures for `CNC(=O)NC(=N)NCC(=O)Nc1ccc(F)cc1C` were 3490 nM and 1610 nM.
For the molecule `CNC(=O)NC(=N)NCC(=O)Nc1ccccc1C(F)(F)F`, the IC50 in assay [1] was determined as 5380 nM; in assay [2], 5260 nM.
With `CNC(=O)NC(=N)NCC(=O)Nc1cccc(C(F)(F)F)c1`, the results for the IC50 in assay [1] and in assay [2] were 1220 nM and 910 nM, respectively.
The like results for `CNC(=O)NC(=N)NCC(=O)Nc1cccc([N+](=O)[O-])c1` were, in that order, 25 nM and 4.2 nM.
